Three compounds from publication PMC4992440 (ACS chemical biology, 2016) can be followed below.

The structures appear in SMILES notation. Where two headings read alike, the source gives them in different places.

The test system of data set [1] is IL-10 production in Zymosan A-stimulated BMDCs. Briefly: IL-10 production by Zymosan A-stimulated BMDCs. As to conditions: read-out: IL-10 EC50, mean ± SD from ≥ 2 independent experiments. The data set is classed as cell-based, mouse.
Data set [2] in a line: Mouse liver microsome stability. To be noted: mouse liver microsomes; 1 independent experiment.
In data set [3] the test system is p-HDAC5 (Ser259) in BMDMs. The data set is described as follows: HDAC5 Ser259 phosphorylation in LPS-stimulated BMDMs. As to conditions: 1 μM, 6 hr pre-incubation, LPS 30 min. The data set is classed as cell-based, mouse.
Data set [4] can be described thus: Serum / plasma protein binding. The data set is classed as in vitro ADME, mouse.
Another data set concerns BMDCs. Briefly: Cellular cytotoxicity in Zymosan A-stimulated BMDCs. The format is cell-based, mouse.
Data set [5] has as its system TNFα, IL-6, IL-12p40, IL-1β in BMDCs. Briefly: Inflammatory cytokine production by Zymosan A-stimulated BMDCs. As to conditions: 1 μM 24 hr, Zymosan A 18 hr. The format is cell-based, mouse.
The nature of data set [6]: Pharmacokinetics after IP administration in mice. To be noted: mouse. The format is in vivo.
Data set [7] relates to LPS-stimulated C57BL/6 mice. The data set is classed as in vivo. To be noted: mouse.
Data set [8] relates to Il10 and Nurr77 transcripts in BMDCs. The data set is described as follows: CREB target gene transcripts in LPS-stimulated BMDCs. As to conditions: 1 μM, 24 hr pre-treatment. The format is cell-based, mouse.
The conditions of data set [9]: mouse, microsomes.
The next data set has as its system C57BL/6 mice. Briefly: Daily dosing for 1 week in mice: weight, serum triglycerides, adiponectin. The format is in vivo, mouse. As to conditions: wild-type mice, daily for 1 week.
A further data set in a line: PBS solubility. The data set is classed as physicochemical.

On to `COc1ccc(N(C(=O)Nc2c(C)cccc2C)c2cc(Nc3ccc(N4CCN(C)CC4)cc3)ncn2)c(OC)c1` [Compound 1, reference compound], for which the EC50 in data set [1] is 0.22 ± 0.09 µM. Besides, the “MLM t1/2” value in data set [2] is 0.183 h. The “LPS stimulated phosphorylation of HDAC5 at Ser259” value in data set [3] is recorded as “reduces”. Further, in [4], the serum bound is greater than 99%.

In the case of `COc1ccc(N2C(=O)N(c3c(C)cccc3Cl)Cc3cnc(Nc4ccc(N5CCN(C)CC5)cc4)nc32)nc1` [Compound 3], the “toxicity in BMDCs (in words)” value with BMDCs is recorded as “significantly elevated toxicity”. Also, in [1], the EC50 is 0.011 ± 0.001 µM. Besides, the “MLM t1/2” value in data set [2] stood at 0.45 h.

As for `COc1ccc(N2C(=O)N(c3c(C)cccc3Cl)Cc3cnc(Nc4ccc(C5CCN(C)CC5)cc4OC)nc32)nc1` [Compound 5], in data set [5], the IL-1β release entry is on record as “only modestly enhanced”, the IL-6 production result is on record as “suppressed”, the IL-12p40 production result is reported as “suppressed” and the TNFα production result is recorded as “suppressed”. Moreover, the “concentrations at which non-toxic” value in the data set on BMDCs was no more than 10 µM. In addition, in [6] (IP 20 mg/Kg, 24 hour treatment period), the “changes in viability, activity or grooming” value is on record as “no obvious changes”. Moreover, in data set [6] (IP, 20 mg/Kg, serum), the “clearance t1/2” value is greater than 7 h. Moreover, the EC50 in [1] was 0.46 ± 0.11 µM. Besides, the “LPS-induced increase in Il6 mRNA in colon” value in data set [7] (IP 20 mg/Kg) is “not affected”. The “serum IL-6 levels” value in data set [7] (IP 20 mg/Kg, LPS) is “moderately decreased”. For the same compound, the “increase of serum IL-10 levels” value in data set [7] (IP 20 mg/Kg, LPS 1 hour) is given as greater than 2 fold. Besides, in data set [7] (IP 20 mg/Kg, throughout the experiment), the “Tnf transcript in colon” value is on record as “reduced”. Further, in data set [7] (IP 5 – 50 mg/Kg, 15 min before LPS 1 hour), the “phosphorylation of HDAC5 at Ser259 in total splenic leukocytes” value is recorded as “dose dependently decreased”. The “abundance of TNFα in serum” value in data set [7] (IP, beginning at 5 mg/Kg, LPS 1 hour) is “dose-dependently reduced”. Moreover, in data set [7] (IP, beginning at the 20 mg/Kg dose), the “phosphorylation of HDAC5 at Ser259 in total splenic leukocytes, immunoblotting” value is “below the limit of detection”. Further, in data set [8], the Il10 transcript level result is “increased” and the Nurr77 transcript level entry was “increased”. Further, the “MLM t1/2” value in [9] is greater than 2 h. The “tolerability of daily injections” value with C57BL/6 mice is reported as “well tolerated”. Also, the PBS solubility in “PBS solubility” was determined as 428 ± 11 µM. Further, in data set [3], the “LPS stimulated phosphorylation of HDAC5 at Ser259” value is “reduced”.
